Read-outs that look alike come from different tables or passages of the source.
Key:
[1] = tested on: Fisher and Wistar Kyoto (WK) rats; settings: rat, in vivo
Description: (§1) Eighteen Wistar Kyoto (WKY) rats (ages 12-16 weeks old) and eighteen Fisher (ages 12-16 weeks old) were purchased from Charles River Laboratories (Pointe-Claire, QC, Canada). The rats were tagged and housed in plastic cages (2 to 4 animals per cage) under standard laboratory conditions with a 12-hour dark/12-hour light cycle, a constant temperature of 20° C., and humidity of 48%. Food and water were provided ad libitum with a standard rodent diet. The weight of the rats were followed before and after the implant of a prednisone pellet for the first 3 consecutive weeks and then every month until the end of the experiment. All experiments were conducted under an animal protocol approved by the McGill Animal Care Department.
Slow-release prednisone pellets (Innovative Research of America, Sarasota Florida, USA) were implanted subcutaneously into 12 Wistar Kyoto rats (all males) and 12 Fisher rats (all males) at the age of 8-12 weeks. Each pellet was implanted underneath the skin on the lateral side of the neck by surgically making an incision and developing a pocket about 2 cm beyond the incision site. The pellet was placed in the pocket and the incision was sutured. Based on the manufacturer's instructions the pellet releases a constant dose of the drug subcutaneously. To maintain a constant dosage during the 6 month period of the experiment, second and third pellet implantations were performed using the same procedure at 2 and 3 months respectively. The average dose release from the pellet was equivalent to 1.5 mg/kg/day for the period of 6 months. The dose of corticosteroids and the duration of treatment were chosen based on clinical experience. For the control group, 6 age-matched Wistar Kyoto (all males) and 6 age-matched Fisher (all males) rats received placebo pellets (Innovative Research of America) introduced through the same surgical technique.
The rats were sacrificed with an overdose of ketamine/xylazine at the age of 32-36 weeks. Tissue samples were obtained from the proximal femur containing the femoral head. Some samples were put in RNALater™ (QIAGEN Inc., Mississauga, ON, Canada) for RNA extraction and some samples were fixed for histological examination. Bone samples were fixed in 10% neutral buffered formalin, then decalcified in 4% ethylenediamine tetraacetic acid (pH 7.2) (Sigma-Aldrich, St. Louis, Mo., USA). The specimens were processed routinely and embedded in paraffin. Tissue samples were sectioned parasagitally with a rotary microtome at 4 to 5 microns thickness, stained with hematoxylin and eosin and evaluated by light microscopy.
The tissue samples were analyzed in a blinded fashion by two experienced bone pathologists. […] While the development of ON proceeds through various clinically identifiable stages, it was preferable for this study to detect early as well as the late stages of the condition. With this objective in mind, the criteria of Arlet [Arlet, 1993] was adopted namely degeneration, necrosis, and disappearance of marrow cells as well as the nuclear disappearance and hypochromasia of trabecular osteocytes as early signs of ON [Arlet, 1993]. Early signs of ON was also considered when apoptosis occurred in the osteocytes and osteoblasts. Positivity for apoptosis was defined by the authors as more than three osteocytes and/or osteoblasts recognized in a high magnification field based on previous studies [Weinstein et al, 2000; Shibahara et al., 2000].
Terminal dexoynucleotidyl transferase (TdT) mediated deoxyuridine triphosphate biotin nick end labeling (TUNEL) was used to detect fragmented DNA known to be associated with apoptotic cell death. TUNEL assay on paraffin-embedded tissue sections was performed with the DeadEnd™ Colorimetric TUNEL System (Promega, Madison, Wis., USA) as recommended by the manufacturer. […]

[2] = tested on: Fisher and Wistar Kyoto (WK) rats; settings: male, rat, in vivo, 5 months
[3] = tested on: Wistar Kyoto rats; settings: male, rat, in vivo, 6 months
Description: as §1, with “Experimental animals and their maintenance. Forty” for “Eighteen”, “4” for “12-16 weeks old) and eighteen Fisher (ages 12-16”
Slow-release prednisone pellets (Innovative Research of America, Sarasota Florida, USA) were implanted subcutaneously into 24 Wistar Kyoto rats (12 males and 12 females rats) at the age of 5 weeks. […]
The rats were sacrificed with an overdose of ketamine/xylazine at the age of 30 weeks. […] Tissue samples were sectioned parasagitally with a rotary microtome at 4 to 5 microns thickness, stained with hematoxylin and eosin and evaluated by light microscopy.
The tissue samples were analyzed in a blinded fashion by two experienced bone pathologists. […]

[4] = tested on: Fisher and WK rats; experiment: Micro-computerized tomography scanning of femoral head cross-sections; format: in vivo, rat
Description: At the conclusion of the 180 day experimental period, all prednisone and placebo animals were euthanized via brief isoflurane exposure followed by cardiac puncture. Immediately following euthanasia, both femurs in each animal were dissected, with care taken to preserve the integrity of the femoral cartilage during hip disarticulation. The femurs were then osteotomized at the mid-diaphysis and the proximal portion was immersed initially in 4% paraformaldehyde for 24 hours, washed with sterile phosphate buffered saline (PBS) for the following 48 hours, and then preserved in PBS at −5° Celsius.
Micro computed-tomography (μCT) scanning was performed on each harvested femur using a Skyscan1172 instrument equipped with a 1.3 Mp camera (Skyscan, Kontich, Belgium). […] 2-dimensional serial cross sections were assembled into 3D reconstructions and analyzed using Skyscan™ software (CTAn version 2.0.0.1) supplied with the instrument. […]
In the present example, an analysis of the epiphyseal trabecular bone adjacent to the subchondral plate was performed. […] This shape permitted the largest area of epiphyseal bone to be measured without artefact from the adjacent rodent growth plate or cortical cap. […]
Four widely utilized morphometric indices measuring bone volume and bone connectivity were measured from the binarized 3-dimensional volume of interest. […] Total bone porosity (TBP) was also measured. […]

[5] = tested on: Fisher and Wistar Kyoto (WK) rats; experiment: Alpha-2-Macroglobulin (A2M) level in the blood by rat A2M ELISA; format: in vivo
Excerpt: Slow-release prednisone pellets (Innovative Research of America, Sarasota Florida, USA) were implanted subcutaneously into 12 Wistar Kyoto rats (all males) and 12 Fisher rats (all males) at the age of 8-12 weeks. Each pellet was implanted underneath the skin on the lateral side of the neck by surgically making an incision and developing a pocket about 2 cm beyond the incision site. The pellet was placed in the pocket and the incision was sutured. Based on the manufacturer's instructions the pellet releases a constant dose of the drug subcutaneously. To maintain a constant dosage during the 6 month period of the experiment, second and third pellet implantations were performed using the same procedure at 2 and 3 months respectively. The average dose release from the pellet was equivalent to 1.5 mg/kg/day for the period of 6 months. The dose of corticosteroids and the duration of treatment were chosen based on clinical experience. For the control group, 6 age-matched Wistar Kyoto (all males) and 6 age-matched Fisher (all males) rats received placebo pellets (Innovative Research of America) introduced through the same surgical technique. All rats were weighed upon their entry into the animal facility and were then weighed on a weekly basis until the end of the experimental period. Serum glucose measurements were performed at 2 week intervals via saphenous venipuncture using a portable glucometer (ContourTM glucometer, Bayer). Furthermore, 1 ml of whole blood was collected from each animal once a month via sublingual venipuncture under general anesthesia following a previously described technique. Following venipuncture, the blood was transferred to standard EDTA tubes, centrifuged for 8 minutes at 3600 rpm and the serum was separated and initially stored at -20° Celsius. Monthly serum […] concentrations were determined using a Rat Alpha 2-Marcoglobulin Enzyme Linked Immunoassay (ELISA) (Kamiya Biomedical Company, Seattle, USA) according to the manufacturer's instructions. This measurement was performed by an author blinded to treatment allocation. Fisher and Wistar Kyoto (WK) rats received steroid/placebo treatment for 5 and 6 months, respectively and blood was collected monthly. The Alpha-2-Macroglobulin […]) level in the blood was detected using rat […] ELISA kit (Immunology Consultants Laboratory, USA). Rats were divided into groups based on the treatment as well as the results from histopathology and TUNEL evaluation. AVN(+) was judged to be either TUNEL (+) or (++), or AVN(-) by histopathology study on at least one hip. […] However, as shown on FIG. 3C, the […] level in the blood of steroid-treated Fisher rats (only those considered AVN(+)) increased at 2 months after steroid treatment, and they were consider AVN(+). […]

[6] = tested on: A2M gene expression in human umbilical vein endothelial cells (HUVEC); experiment: A2M gene expression in treated HUVEC cells (qPCR); format: cell-based; settings: for effect on A2M overexpression induced by dexamethasone: combined with dexamethasone, PD98059 20 μM, withaferin 1 μM (FIG. 4D)
Description: HUVECs were purchased from Lonza (Walkersville, Md., USA) and cultured in endothelial basal medium (EBM-2media (Lonza) supplemented with microvascular additives (excluding hydrocortisone): human endothelial growth factor, 5% fetal bovine serum (FBS), vascular endothelial growth factor, human fibroblast growth factor type B, R3 insulin-like growth factor 1, ascorbic acid, heparin and the appropriate antibiotics gentamicin and amphotericin B (as per the supplier's protocol). HUVECs cells were cultured to near confluence (80%), trypsinized and seeded on 6 wells plates (10^5 cells/well). After 24 h incubation, cells were treated with dexamethasone (0.25 to 1 mM, Sigma-Aldrich, St-Louis, Mo., USA) for different time periods (between 4h to 48h). For experiments relating to the signaling pathways, different inhibitors were used: PD98059 (20 μM, Sigma) a MAPK inhibitor; withaferin (1 μM, Tocris, Bristol, UK), an NFkB PI3K inhibitor, and thrombin (1.5 U/ml; Calbiochem, San Diego, Calif., USA) an NFkB agonist. After incubation cells were harvested and RNA extracted using Trisol® (Invitrogen, Burlington, ON, Canada). RNA were then reverse transcribed using high capacity RNA to cDNA kit (Applied biosystems, Carlsbad, Calif., USA). A2M expression levels were then determined by qPCR using Taqman probes and master mix (Applied Biosystems)
First, a dose response curve of HUVEC cells treated 48h using different concentration of Dex (dexamethasone) (0.1 mM to 1 mM) was generated. […] Then, a time response curve (4h to 24h) of HUVEC cells treated with 1 mM dexamethasone was generated. […] The effect of dexamethasone, PD and whitaferin on A2M expression of HUVEC cells was also determined.

C[C@]12C=CC(=O)C=C1CC[C@@H]1[C@@H]2C(=O)C[C@@]2(C)[C@H]1CC[C@]2(O)C(=O)CO [Prednisone, prednisone]
Total TUNEL(++) hips ([1]; male, Wistar Kyoto, 6 months): 9
Total TUNEL(−) hips ([1]; male, Wistar Kyoto, 6 months): 1
number of hips AVN(+) TUNEL(−) ([1]; male, Wistar Kyoto, 6 months): 1
number of hips AVN(−) TUNEL(+) ([1]; male, Wistar Kyoto, 6 months): 1
number of hips AVN(−) TUNEL(++) ([1]; male, Wistar Kyoto, 6 months): 2
apoptosis (TUNEL positive cells) in bilateral femora [1]: more profound
Total TUNEL(++) hips [2]: 7
Total TUNEL(−) hips [2]: 2
number of hips AVN(+) TUNEL(−) [2]: 1
incidence of the disease (ON) [3]: up to 75%
micro-CT findings of femoral head ([4]; Fisher rats following steroid administration (FIG. 5A)): no articular erosion
rats with subchondral porosity, small and erratic trabeculae and isotropic trabecular arrangement ([4]; steroid-treated WK rats (FIG. 5B)): 9 out of 12
A2M level in the blood ([5]; Fisher rats, 5 months after the beginning of the steroid treatment (FIG. 3E)): declined
A2M level in the blood ([5]; steroid-treated Fisher rats AVN(+), at 2 months after steroid treatment (FIG. 3C)): increased
time of peak A2M level in the blood after the beginning of the treatment ([5]; steroid-treated WK rats, all AVN(+) (FIG. 3D)): 3 month
A2M level in the blood ([5]; steroid-treated WK rats, at least 6 months after the beginning of the treatment (FIG. 3E)): remained higher than placebo-treated group

C[C@@H]1C[C@H]2[C@@H]3CCC4=CC(=O)C=C[C@]4(C)[C@@]3(F)[C@@H](O)C[C@]2(C)[C@@]1(O)C(=O)CO [dexamethasone]
concentration of maximum effect on A2M expression ([6]; HUVEC treated 48h, dose response 0.1 mM to 1 mM (FIG. 4A)): 0.5 mM
time of maximum effect on A2M expression ([6]; HUVEC, 1 mM dexamethasone, time response 4h to 24h (FIG. 4B)): 24 h

COc1cccc(-c2cc(=O)c3ccccc3o2)c1N [PD, PD98059]
effect on A2M overexpression induced by dexamethasone ([6]; HUVEC): repression of A2M gene expression

CC1=C(CO)C(=O)O[C@@H]([C@@H](C)[C@H]2CC[C@H]3[C@@H]4C[C@H]5O[C@]56[C@@H](O)C=CC(=O)[C@]6(C)[C@H]4CC[C@]23C)C1 [whitaferin, withaferin]
effect on A2M overexpression induced by dexamethasone ([6]; HUVEC): repression of A2M gene expression
